Test results taken from ChEMBL document CHEMBL1158919, “Antiviral Activity of Ternatin and Meliternatin, 3-Methoxyflavones from Species of Rutaceae” (J Nat Prod, 1990).
Active and inactive are the calls of the source. The rule behind the calls is not given here.

Tests used:
Human adenovirus 2 [1] = assay: Antiviral activity against 10^-2 MOI Human adenovirus 2 infected in african green monkey Vero cells assessed as inhibition of virus-induced cytopathic effect; type: functional; conditions: Human mastadenovirus C, read-out: ED50 (the source's name)
Human adenovirus 2 [2] = assay: Antiviral activity against 10^-3 MOI Human adenovirus 2 infected in african green monkey Vero cells assessed as inhibition of virus-induced cytopathic effect; type: functional; conditions: Human mastadenovirus C, read-out: ED50 (the source's name)
[3] = Therapeutic index, ratio of CyD50 for african green monkey Vero cells to ED50 for 10^-2 MOI Human adenovirus 2; type: cell-based; conditions: read-out: TI
Human alphaherpesvirus 1 [4] = assay: Antiviral activity against 10^-2 MOI HSV1 infected in african green monkey Vero cells assessed as inhibition of virus-induced cytopathic effect; type: functional, organism-based
Human alphaherpesvirus 1 [5] = assay: Antiviral activity against 10^-3 MOI HSV1 infected in african green monkey Vero cells assessed as inhibition of virus-induced cytopathic effect; type: functional; conditions: Human alphaherpesvirus 1, Vero; read-out: ED50 (the source's name)
[6] = Therapeutic index, ratio of CyD50 for african green monkey Vero cells to ED50 for 10^-3 MOI HSV1; type: cell-based; conditions: read-out: TI
Human alphaherpesvirus 2 [7] = assay: Antiviral activity against 10^-2 MOI HSV2 infected in african green monkey Vero cells assessed as inhibition of virus-induced cytopathic effect; type: functional; conditions: Human alphaherpesvirus 2, Vero; read-out: ED50 (the source's name)
Human alphaherpesvirus 2 [8] = assay: Antiviral activity against 10^-3 MOI HSV2 infected in african green monkey Vero cells assessed as inhibition of virus-induced cytopathic effect; type: functional; conditions: Human alphaherpesvirus 2, Vero; read-out: ED50 (the source's name)
[9] = Therapeutic index, ratio of CyD50 for african green monkey Vero cells to ED50 for 10^-2 MOI HSV2; type: cell-based; conditions: read-out: TI
[10] = system: Vesicular stomatitis virus; assay: Antiviral activity against 10^-2 MOI VSV infected in african green monkey Vero cells assessed as inhibition of virus-induced cytopathic effect; type: functional; conditions: read-out: ED50 (the source's name)
[11] = system: Vesicular stomatitis virus; assay: Antiviral activity against 10^-3 MOI VSV infected in african green monkey Vero cells assessed as inhibition of virus-induced cytopathic effect; type: functional; conditions: read-out: ED50 (the source's name)
[12] = Therapeutic index, ratio of CyD50 for african green monkey Vero cells to ED50 for 10^-2 MOI VSV; type: cell-based; conditions: read-out: TI
[13] = Therapeutic index, ratio of CyD50 for african green monkey Vero cells to ED50 for 10^-3 MOI VSV; type: cell-based; conditions: read-out: TI
Poliovirus 2 [14] = assay: Antiviral activity against 10^-2 MOI Poliovirus type 2 infected in african green monkey Vero cells assessed as inhibition of virus-induced cytopathic effect; type: functional; conditions: Enterovirus C, read-out: ED50 (the source's name)
Poliovirus 2 [15] = assay: Antiviral activity against 10^-3 MOI Poliovirus type 2 infected in african green monkey Vero cells assessed as inhibition of virus-induced cytopathic effect; type: functional; conditions: Enterovirus C, read-out: ED50 (the source's name)
[16] = Therapeutic index, ratio of CyD50 for african green monkey Vero cells to ED50 for 10^-2 MOI Poliovirus 2; type: cell-based; conditions: read-out: TI
[17] = Therapeutic index, ratio of CyD50 for african green monkey Vero cells to ED50 for 10^-3 MOI Poliovirus 2; type: cell-based; conditions: read-out: TI
[18] = Therapeutic index, ratio of CyD50 for african green monkey Vero cells to ED50 for 10^-3 MOI Human adenovirus 2; type: cell-based; conditions: read-out: TI
[19] = Therapeutic index, ratio of CyD50 for african green monkey Vero cells to ED50 for 10^-3 MOI HSV2; type: cell-based; conditions: read-out: TI
Vero [20] = assay: Cytotoxicity against african green monkey Vero cells up to 200 uM after 96 hrs; type: cell-based; conditions: chlorocebus sabaeus
Vero [21] = assay: Cytotoxicity against african green monkey Vero cells up to 800 uM after 96 hrs; type: cell-based; conditions: chlorocebus sabaeus
Vero [22] = assay: Cytotoxicity against african green monkey Vero cells assessed as cell lysis at >200 uM after 96 hrs; type: cell-based; conditions: chlorocebus sabaeus
Poliovirus 2 [23] = assay: Antiviral activity against Poliovirus type 2 infected in african green monkey Vero cells assessed as log reduction in viral titer at 1.12 ug/mL; type: functional
Human adenovirus 2 [24] = assay: Antiviral activity against Human adenovirus 2 infected in african green monkey Vero cells assessed as log reduction in viral titer; type: functional
Human alphaherpesvirus 2 [25] = assay: Antiviral activity against HSV2 infected in african green monkey Vero cells assessed as log reduction in viral titer; type: functional
[26] = system: Vesicular stomatitis virus; assay: Antiviral activity against VSV infected in african green monkey Vero cells assessed as log reduction in viral titer; type: functional
Human alphaherpesvirus 1 [27] = assay: Antiviral activity against HSV1 infected in african green monkey Vero cells assessed as log reduction in viral titer; type: functional
Poliovirus 2 [28] = assay: Antiviral activity against Poliovirus type 2 infected in african green monkey Vero cells assessed as reduction in viral titer at 5 ug/mL; type: functional, organism-based
Vero [29] = assay: Cytotoxicity against african green monkey Vero cells assessed as cell lysis at >800 uM after 96 hrs; type: cell-based; conditions: chlorocebus sabaeus

COc1cc(-c2oc3c(OC)c(OC)cc(O)c3c(=O)c2OC)ccc1O [TERNATIN]
EC50 (Human adenovirus 2 [1]): 10 µM | EC50 (Human adenovirus 2 [2]): 10 µM | selectivity ratio [3]: 20 | ED50 (Human alphaherpesvirus 1 [4]): inactive | EC50 (Human alphaherpesvirus 1 [5]): 44 µM | selectivity ratio [6]: 4.6 | EC50 (Human alphaherpesvirus 2 [7]): 100 µM | EC50 (Human alphaherpesvirus 2 [8]): 14 µM | selectivity ratio [9]: 2 | EC50 [10]: 48 µM | EC50 [11]: 38 µM | selectivity ratio [12]: 4.2 | selectivity ratio [13]: 5.2 | EC50 (Poliovirus 2 [14]): 4 µM | EC50 (Poliovirus 2 [15]): 3 µM | selectivity ratio [16]: 50 | selectivity ratio [17]: 66.6 | selectivity ratio [18]: 20 | selectivity ratio [19]: 14.4 | Activity (Vero [20]): Non-toxic | Activity (Vero [21]): Non-toxic | Activity (Vero [22]): Toxic | Activity (Poliovirus 2 [23]): 5 | Activity (Human adenovirus 2 [24]): 3 | Activity (Human alphaherpesvirus 2 [25]): 2 | Activity [26]: 2 | Activity (Human alphaherpesvirus 1 [27]): 1

COc1c(-c2ccc(O)c(O)c2)oc2cc(O)cc(O)c2c1=O
Activity (Poliovirus 2 [28]): Active

COc1c(-c2ccc3c(c2)OCO3)oc2cc3c(c(OC)c2c1=O)OCO3 [MELITERNATIN]
Activity (Vero [29]): Toxic
